How the values were obtained:
[1] = test system: Rattus norvegicus; test: Hypoglycemic activity in 48 hrs fasted rat assessed as reduction in glucose level at 300 mg/kg, po measured after 1 hr; format: functional; parameters: scale not given: the % may be the effect or the level left
[2] = test system: Rattus norvegicus; test: Hypoglycemic activity in 48 hrs fasted rat assessed as reduction in glucose level at 125 mg/kg, po measured after 4 hrs; format: functional; parameters: scale not given: the % may be the effect or the level left
[3] = test system: Rattus norvegicus; test: Hypoglycemic activity in 48 hrs fasted rat assessed as reduction in glucose level at 125 mg/kg, po measured after 1 hr; format: functional; parameters: scale not given: the % may be the effect or the level left
[4] = test system: Rattus norvegicus; test: Hypoglycemic activity in 48 hrs fasted rat assessed as reduction in glucose level at 300 mg/kg, po measured after 2 hrs; format: functional; parameters: scale not given: the % may be the effect or the level left
[5] = Half life of the compound at pH 6; format: physicochemical
[6] = Half life of the compound at pH 8; format: physicochemical
[7] = test system: Rattus norvegicus; test: Hypoglycemic activity in 48 hrs fasted rat assessed as reduction in glucose level at 125 mg/kg, po measured after 2 hrs; format: functional; parameters: scale not given: the % may be the effect or the level left
[8] = test system: Rattus norvegicus; test: Hypoglycemic activity in 48 hrs fasted rat assessed as reduction in glucose level at 300 mg/kg, po measured after 4 hrs; format: functional; parameters: scale not given: the % may be the effect or the level left
[9] = Stability of the compound assessed as rate of 3-mercaptopicolinic acid formation at 10 mg at pH 6 by DTNB method; format: physicochemical
[10] = Stability of the compound assessed as rate of 3-mercaptopicolinic acid formation at 10 mg at pH 8 by DTNB method; format: physicochemical
[11] = Stability of the compound in 3 N HCl-ethanol […] measured after refluxing for 2.5 hrs by TLC; format: physicochemical; details: buffer
[12] = Stability of the compound in 3 N HCl at room temperature after 3.5 hrs by TLC; format: physicochemical; details: buffer
[13] = test system: Rattus norvegicus; test: Hypoglycemic activity in 48 hrs fasted rat assessed as reduction in glucose level at 150 mg/kg, po measured after 1 hr; format: functional; parameters: scale not given: the % may be the effect or the level left
[14] = test system: Rattus norvegicus; test: Hypoglycemic activity in 48 hrs fasted rat assessed as reduction in glucose level at 150 mg/kg, po measured after 4 hrs; format: functional; parameters: scale not given: the % may be the effect or the level left
[15] = test system: Rattus norvegicus; test: Hypoglycemic activity in 48 hrs fasted rat assessed as reduction in glucose level at 150 mg/kg, po measured after 2 hrs; format: functional; parameters: scale not given: the % may be the effect or the level left
[16] = Stability of the compound assessed as compound remaining at equilibrium at 10 mg at pH 6 by DTNB method; format: physicochemical
[17] = test system: Rattus norvegicus; test: Hypoglycemic activity in 48 hrs fasted rat assessed as reduction in glucose level at 250 mg/kg, po measured after 4 hrs; format: functional; parameters: scale not given: the % may be the effect or the level left
[18] = test system: Rattus norvegicus; test: Hypoglycemic activity in 48 hrs fasted rat assessed as reduction in glucose level at 250 mg/kg, po measured after 1 hr; format: functional; parameters: scale not given: the % may be the effect or the level left
[19] = test system: Rattus norvegicus; test: Hypoglycemic activity in 48 hrs fasted rat assessed as reduction in glucose level at 250 mg/kg, po measured after 2 hrs; format: functional; parameters: scale not given: the % may be the effect or the level left
[20] = test system: Rattus norvegicus; test: Hypoglycemic activity in 48 hrs fasted rat assessed as reduction in glucose level at 200 mg/kg, po measured after 1 hr; format: functional; parameters: scale not given: the % may be the effect or the level left
[21] = test system: Rattus norvegicus; test: Hypoglycemic activity in 48 hrs fasted rat assessed as reduction in glucose level at 200 mg/kg, po measured after 2 hrs; format: functional; parameters: scale not given: the % may be the effect or the level left
[22] = test system: Rattus norvegicus; test: Hypoglycemic activity in 48 hrs fasted rat assessed as reduction in glucose level at 200 mg/kg, po measured after 4 hrs; format: functional; parameters: scale not given: the % may be the effect or the level left

SMILES | half-life [5] [h] | half-life [6] [h] | Activity [9] [h⁻¹] | Activity [10] [h⁻¹] | Activity [1] [%] | Activity [4] [%] | Activity [8] [%] | Activity [13] [%] | Activity [14] [%] | Activity [15] [%] | also measured
CC(C)(C)C(=O)Sc1cccnc1C(=O)O | 61.1 | 115 | 0.006 | 0.0114 | -20 | -43 | -70 | – | – | – | Activity [2]: 52%; Activity [3]: 21%; Activity [7]: 42%
O=C(Sc1cccnc1C(=O)O)c1ccccc1Cl | 27.2 | 75.8 | 0.0091 | 0.0255 | -35 | -39 | -40 | – | – | – | –
CN(C)c1ccc(C(=O)Sc2cccnc2C(=O)O)cc1 | – | – | – | – | – | – | – | -12 | -8 | -2 | –
O=C(O)c1ncccc1S | – | – | – | – | – | – | – | -32 | -56 | -44 | –
O=C(Sc1cccnc1C(=O)O)c1ccc(C(F)(F)F)cc1 | 3 | 10.1 | 0.0688 | 0.231 | -26 | -54 | -75 | – | – | – | Activity [2]: 32%; Activity [3]: 28%; Activity [7]: 41%
O=C(Sc1cccnc1C(=O)O)c1ccc([N+](=O)[O-])cc1 | 1.4 | 4.7 | 0.147 | 0.513 | 0 | 0 | 12 | – | – | – | Stability [16]: 24.3 mol%
N#Cc1ccc(C(=O)Sc2cccnc2C(=O)O)cc1 | – | – | – | – | – | – | – | -18 | 0 | -16 | –
COC(=O)c1ccc(C(=O)Sc2cccnc2C(=O)O)cc1 | – | – | – | – | – | – | – | -17 | 1 | -20 | –
NS(=O)(=O)c1ccc(C(=O)Sc2cccnc2C(=O)O)cc1 | – | – | – | – | – | – | – | 20 | 3 | -16 | –
NC(=O)c1ccc(C(=O)Sc2cccnc2C(=O)O)cc1 | – | – | – | – | – | – | – | -22 | -25 | -6 | –
CC(=O)Nc1ccc(C(=O)Sc2cccnc2C(=O)O)cc1 | – | – | – | – | – | – | – | -18 | 7 | -14 | –
O=C(Nc1ccc(C(=O)Sc2cccnc2C(=O)O)cc1)c1ccccc1 | – | – | – | – | – | – | – | -20 | -4 | -20 | –
CCC(=O)Sc1cccnc1C(=O)O | – | – | – | – | – | – | – | – | – | – | Activity [17]: 55%; Activity [18]: 22%; Activity [19]: 52%
CCCCCCCCCCC(=O)Sc1cccnc1C(=O)O | – | – | – | – | – | – | – | -14 | -9 | 3 | –
CCCCNC(=O)NS(=O)(=O)c1ccc(C)cc1 [TOLBUTAMIDE] | – | – | – | – | – | – | – | – | – | – | Activity [20]: 28%; Activity [21]: 47%; Activity [22]: 48%

Continued, in another order:

half-life [5] [h] | half-life [6] [h] | Activity [9] [h⁻¹] | Activity [10] [h⁻¹] | SMILES | Activity [1] [%] | Activity [4] [%] | Activity [8] [%] | Activity [13] [%] | Activity [14] [%] | Activity [15] [%] | also measured
21.1 | 60.1 | 0.0115 | 0.0329 | O=C(Sc1cccnc1C(=O)O)c1ccccc1 | -27 | -42 | -56 | – | – | – | Stability [11]: Stable; Stability [12]: Stable
4.7 | 14.8 | 0.0468 | 0.148 | O=C(Sc1cccnc1C(=O)O)c1cccc(Cl)c1 | -27 | -32 | -42 | – | – | – | –
7.9 | 26.6 | 0.0261 | 0.0879 | O=C(Sc1cccnc1C(=O)O)c1ccc(Cl)cc1 | -43 | -34 | -57 | – | – | – | Activity [2]: 40%; Activity [3]: 12%; Activity [7]: 34%
3.9 | 10 | 0.0695 | 0.179 | O=C(Sc1cccnc1C(=O)O)c1cccc(C(F)(F)F)c1 | -35 | -38 | 45 | – | – | – | –
11.9 | 63.7 | 0.0109 | 0.0583 | COc1cccc(C(=O)Sc2cccnc2C(=O)O)c1 | -15 | -24 | -30 | – | – | – | –
43.9 | 182 | 0.0038 | 0.0158 | COc1ccc(C(=O)Sc2cccnc2C(=O)O)cc1 | 16 | -25 | 19 | – | – | – | –
25.6 | 80.1 | 0.0087 | 0.0271 | Cc1ccc(C(=O)Sc2cccnc2C(=O)O)cc1 | -21 | -16 | -4 | – | – | – | –
12.1 | 111 | 0.0062 | 0.0575 | O=C(Sc1cccnc1C(=O)O)c1ccc(F)cc1 | -29 | -47 | -44 | – | – | – | –

From ChEMBL document CHEMBL3244119, “Synthesis and hypoglycemic activity of S-acyl derivatives of 3-mercaptopicolinic acid” (J Med Chem, 1977)
